ChEMBL document CHEMBL1201862, “PubChem BioAssay data set” (2004)
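A five-concentration, 48-hour dose response in 96-well plates underlies each endpoint, interpolated linearly between surrounding concentrations. Abbreviation: GI50, concentration required for 50% inhibition of growth.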 Active and inactive are the calls of the source. Rule as the data show it: active = GI50 up to about 1.1 µM and inactive = higher.

Legend:
Assay in all cases: growth of human tumour cells (NCI), 48 h
786-0 = test system: 786-0
A498 = test system: A498
A549 = test system: A549
ACHN = test system: ACHN
BT-549 = test system: BT-549
CAKI-1 = test system: CAKI-1
COLO 205 = test system: COLO 205
DU-145 = test system: DU-145
EKVX = test system: EKVX
HCC 2998 = test system: HCC 2998
HCT-116 = test system: HCT-116
HCT-15 = test system: HCT-15
HL-60 = test system: HL-60
HOP-62 = test system: HOP-62
HOP-92 = test system: HOP-92
HT-29 = test system: HT-29
Hs-578T = test system: Hs-578T
IGROV-1 = test system: IGROV-1
K562 = test system: K562
KM12 = test system: KM12
LOX IMVI = test system: LOX IMVI
M14 = test system: M14
MCF7 = test system: MCF7
MDA-MB-231 = test system: MDA-MB-231
MDA-MB-435 = test system: MDA-MB-435
MDA-N = test system: MDA-N
MOLT-4 = test system: MOLT-4
NCI-H226 = test system: NCI-H226
NCI-H460 = test system: NCI-H460
NCI-H522 = test system: NCI-H522
NCI/ADR-RES = test system: NCI/ADR-RES
OVCAR-3 = test system: OVCAR-3
OVCAR-4 = test system: OVCAR-4
OVCAR-5 = test system: OVCAR-5
OVCAR-8 = test system: OVCAR-8
PC-3 = test system: PC-3
RPMI-8226 = test system: RPMI-8226
SF-268 = test system: SF-268
SF-295 = test system: SF-295
SF-539 = test system: SF-539
SK-MEL-28 = test system: SK-MEL-28
SK-MEL-2 = test system: SK-MEL-2
SK-MEL-5 = test system: SK-MEL-5
SK-OV-3 = test system: SK-OV-3
SN12C = test system: SN12C
SNB-19 = test system: SNB-19
SNB-75 = test system: SNB-75
SR = test system: SR
SW-620 = test system: SW-620
T47D = test system: T47D
TK-10 = test system: TK-10
U-251 = test system: U-251
UACC-257 = test system: UACC-257
UACC-62 = test system: UACC-62
UO-31 = test system: UO-31

CC12O[C@]3([C@H](C(=O)N4CCOC43C)[C@H]1Cl)[C@H]1O[C@H]12 (stereo not given in full)
GI50 (786-0): > 100 µM (inactive)
GI50 (A498): > 100 µM (inactive)
GI50 (A549): > 100 µM (inactive)
GI50 (ACHN): > 100 µM (inactive)
GI50 (BT-549): > 100 µM (inactive)
GI50 (CAKI-1): > 100 µM (inactive)
GI50 (COLO 205): 24.6 µM (inactive)
GI50 (DU-145): > 100 µM (inactive)
GI50 (EKVX): > 100 µM (inactive)
GI50 (HCC 2998): > 100 µM (inactive)
GI50 (HCT-116): > 100 µM (inactive)
GI50 (HCT-15): > 100 µM
GI50 (HL-60): > 100 µM (inactive)
GI50 (HOP-62): > 100 µM (inactive)
GI50 (HOP-92): > 100 µM (inactive)
GI50 (HT-29): > 100 µM (inactive)
GI50 (Hs-578T): > 100 µM (inactive)
GI50 (IGROV-1): > 100 µM (inactive)
GI50 (K562): 98.6 µM (inactive)
GI50 (KM12): > 100 µM (inactive)
GI50 (LOX IMVI): > 100 µM (inactive)
GI50 (M14): > 100 µM (inactive)
GI50 (MCF7): > 100 µM (inactive)
GI50 (MDA-MB-231): > 100 µM (inactive)
GI50 (MDA-MB-435): > 100 µM (inactive)
GI50 (MDA-N): > 100 µM (inactive)
GI50 (MOLT-4): > 100 µM (inactive)
GI50 (NCI-H226): > 100 µM (inactive)
GI50 (NCI-H460): > 100 µM (inactive)
GI50 (NCI-H522): > 100 µM (inactive)
GI50 (NCI/ADR-RES): > 100 µM (inactive)
GI50 (OVCAR-3): > 100 µM (inactive)
GI50 (OVCAR-4): > 100 µM (inactive)
GI50 (OVCAR-5): > 100 µM (inactive)
GI50 (OVCAR-8): > 100 µM (inactive)
GI50 (PC-3): > 100 µM (inactive)
GI50 (RPMI-8226): 94.8 µM (inactive)
GI50 (SF-268): > 100 µM (inactive)
GI50 (SF-295): > 100 µM (inactive)
GI50 (SF-539): > 100 µM (inactive)
GI50 (SK-MEL-28): > 100 µM (inactive)
GI50 (SK-MEL-2): > 100 µM (inactive)
GI50 (SK-MEL-5): > 100 µM (inactive)
GI50 (SK-OV-3): > 100 µM (inactive)
GI50 (SN12C): > 100 µM (inactive)
GI50 (SNB-19): > 100 µM (inactive)
GI50 (SNB-75): > 100 µM (inactive)
GI50 (SR): 51.4 µM (inactive)
GI50 (SW-620): > 100 µM (inactive)
GI50 (T47D): > 100 µM (inactive)
GI50 (TK-10): > 100 µM (inactive)
GI50 (U-251): > 100 µM (inactive)
GI50 (UACC-257): > 100 µM (inactive)
GI50 (UACC-62): > 100 µM (inactive)
GI50 (UO-31): > 100 µM (inactive)
